{"source": "ChEMBL document CHEMBL5634091", "about": "“Cantharidin analogue alleviates dextran sulfate sodium-induced colitis in mice by inhibiting the activation of NF-κB signaling” (Eur J Med Chem, 2023)", "key": {"[1]": {"assay": "Cytotoxicity against human HCT-116 cells assessed as inhibition in cell proliferation", "type": "toxicity, cell-based"}, "[2]": {"assay": "Toxicity in C57BL/6 mouse model of DSS-induced acute ulcerative colitis assessed as effect on kidney tissue at 100 to 300 mg/kg, po administered once a day for 7 days by H and E staining based analysis", "type": "organism-based", "settings": "in vivo, 168 h, dose 100-300 mg/kg, time 7 day"}, "[3]": {"assay": "Toxicity in Kunming mouse assessed as increase in body weight at 1852 mg/kg, po measured for 15 days (reference value: 12.38%)", "type": "organism-based", "settings": "in vivo, 360 h, time 15 day"}, "[4]": {"assay": "Toxicity in C57BL/6 mouse model of DSS-induced acute ulcerative colitis assessed as effect on stomach at 100 to 300 mg/kg, po administered once a day for 7 days by H and E staining based analysis", "type": "organism-based", "settings": "in vivo, 168 h, dose 100-300 mg/kg, time 7 day"}, "Mus musculus [5]": {"test_system": "Mus musculus", "assay": "Anti-inflammatory activity in po dosed C57BL/6 mouse model of DSS-induced acute ulcerative colitis assessed as reduction in CCL2 mRNA expression in colon administered once a day for 7 days by RT-PCR analysis", "type": "functional, organism-based", "settings": "dose 100-300 mg/kg, time 7.0 day"}, "Mus musculus [6]": {"test_system": "Mus musculus", "assay": "Anti-inflammatory activity in C57BL/6 mouse model of DSS-induced acute ulcerative colitis assessed as reduction in histopathological changes of granulocyte infiltration at 100 to 300 mg/kg, po administered once a day for 7 days by H and E staining based analysis", "type": "functional, organism-based", "settings": "dose 100-300 mg/kg, time 7.0 day"}, "[7]": {"assay": "Toxicity in Kunming mouse assessed as number of mouse survived at 400 mg/kg, po measured for 15 days", "type": "organism-based", "settings": "in vivo, 360 h, time 15 day"}, "HCT-116 [8]": {"test_system": "HCT-116", "assay": "Effect on p38 protein expression in TNF-alpha stimulated human HCT-116 cells at 6.25 to 50 uM preincubated for 4 hrs and followed TNF-alpha stimulation and measured after 10 mins by Western blot analysis", "type": "functional, cell-based", "settings": "dose 6.25-50 µM, time 250.0 min"}, "Mus musculus [9]": {"test_system": "Mus musculus", "assay": "Anti-inflammatory activity in C57BL/6 mouse model of DSS-induced acute ulcerative colitis assessed as reduction in hyperemia at 100 to 300 mg/kg, po administered once a day for 7 days by H and E staining based analysis", "type": "functional, organism-based", "settings": "dose 100-300 mg/kg, time 7.0 day"}, "DLD-1 [10]": {"test_system": "DLD-1", "assay": "Activation of MAPK signaling pathway in TNF-alpha stimulated human DLD-1 cells assessed as increase in phospho-JNK protein expression at 50 uM preincubated for 4 hrs and followed TNF-alpha stimulation and measured after 10 mins by Western blot analysis", "type": "cell-based", "settings": "filed as activator, time 250.0 min"}, "HCT-116 [11]": {"test_system": "HCT-116", "assay": "Inhibition of TNF-alpha induced activation of MAPK signaling pathway in human HCT-116 cells assessed as change in phosphorylated p38 level at 6.25 to 50 uM preincubated for 4 hrs and followed TNF-alpha stimulation and measured after 10 mins by Western blot analysis", "type": "cell-based", "settings": "dose 6.25-50 µM, time 250.0 min"}, "[12]": {"target": "T1, NF-kappa-B inhibitor alpha (Homo sapiens) (UniProt P25963)", "T1 sequence (whole entry)": "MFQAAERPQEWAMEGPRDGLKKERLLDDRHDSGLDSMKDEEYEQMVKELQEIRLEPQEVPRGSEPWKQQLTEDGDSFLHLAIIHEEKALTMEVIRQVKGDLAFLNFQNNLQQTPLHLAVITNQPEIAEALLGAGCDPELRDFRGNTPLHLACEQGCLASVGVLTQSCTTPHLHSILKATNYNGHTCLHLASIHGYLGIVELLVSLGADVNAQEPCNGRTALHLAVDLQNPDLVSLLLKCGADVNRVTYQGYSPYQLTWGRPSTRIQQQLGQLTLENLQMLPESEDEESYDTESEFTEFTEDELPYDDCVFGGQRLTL", "assay": "Inhibition of proteasomal degradation of IkappaBalpha in TNF-alpha induced human DLD-1 cells assessed as increase in IkappaBalpha protein expression at 12.5 to 50 uM preincubated for 4 hrs and followed TNF-alpha stimulation and measured after 10 mins by Western blot analysis", "type": "cell-based", "settings": "dose 12.5-50 µM, time 250.0 min"}, "HCT-116 [13]": {"test_system": "HCT-116", "assay": "Inhibition of TNF-alpha-induced NF-kappaB nuclear translocation in human HCT-116 cells preincubated for 4 hrs followed by TNF-alpha stimulation and measured after 30 mins by immunofluorescence staining based laser scanning confocal microscopic analysis", "type": "cell-based", "settings": "dose 25-50 µM, time 4.5 hrs"}, "HCT-116 [14]": {"test_system": "HCT-116", "assay": "Inhibition of TNF-alpha induced MAPK signaling pathway activation in human HCT-116 cells assessed as decrease in phospho-JNK protein expression at 6.25 uM preincubated for 4 hrs and followed TNF-alpha stimulation and measured after 10 mins by Western blot analysis", "type": "cell-based", "settings": "time 250.0 min"}, "DLD-1 [15]": {"test_system": "DLD-1", "assay": "Inhibition of TNF-alpha induced NF-kB activation in human DLD-1 cells assessed as decrease in phosphorylated p65 protein expression preincubated for 4 hrs and followed TNF-alpha stimulation and measured after 10 mins by Western blot analysis", "type": "cell-based", "settings": "dose 12.5-50 µM, time 250.0 min"}, "[16]": {"assay": "Toxicity in Kunming mouse assessed as increase in body weight at 400 mg/kg, po measured for 15 days (reference value: 12.38%)", "type": "organism-based", "settings": "in vivo, 360 h, time 15 day"}, "[17]": {"assay": "Cytotoxicity against LPS/IFNgamma induced mouse RAW264.7 cells assessed as inhibition of cell growth preincubated for 24 hrs followed by LPS/IFNgamma stimulation and measured after 24 hrs by SRB assay", "type": "toxicity, cell-based", "settings": "RAW264.7 cells induced with LPS/IFNgamma, time 48 hrs"}, "HCT-116 [18]": {"test_system": "HCT-116", "assay": "Cytotoxicity against human HCT-116 cells assessed as induction of stress response at 50 uM", "type": "toxicity, cell-based", "settings": "hct-116, 50 µM"}, "[19]": {"assay": "Selectivity index, ratio of CC50 for cytotoxicity against LPS/IFNgamma induced mouse RAW264.7 cells to IC50 for antiinflammatory activity in mouse RAW264.7 cells assessed as inhibition in LPS/IFNgamma-induced NO production", "type": "toxicity, cell-based", "settings": "RAW264.7 cells induced with LPS/IFNgamma, read-out: Ratio IC50"}, "DLD-1 [20]": {"test_system": "DLD-1", "assay": "Inhibition of TNF-alpha-induced NF-kappaB nuclear translocation in human DLD-1 cells preincubated for 4 hrs followed by TNF-alpha stimulation and measured after 30 mins by immunofluorescence staining based laser scanning confocal microscopic analysis", "type": "cell-based", "settings": "dose 25-50 µM, time 4.5 hrs"}, "HCT-116 [21]": {"test_system": "HCT-116", "assay": "Upregulation of JNK protein expression in TNF-alpha stimulated human HCT-116 cells at 50 uM preincubated for 4 hrs and followed TNF-alpha stimulation and measured after 10 mins by Western blot analysis", "type": "functional, cell-based", "settings": "time 250.0 min"}, "[22]": {"assay": "Toxicity in C57BL/6 mouse model of DSS-induced acute ulcerative colitis assessed as effect on liver tissue at 100 to 300 mg/kg, po administered once a day for 7 days by H and E staining based analysis", "type": "organism-based", "settings": "in vivo, 168 h, dose 100-300 mg/kg, time 7 day"}, "RAW264.7": {"test_system": "RAW264.7", "assay": "Antiinflammatory activity in mouse RAW264.7 cells assessed as inhibition in LPS/IFNgamma-induced NO production preincubated for 2 hrs followed by LPS/IFNgamma stimulation and measured after 24 hrs by Griess reagent based assay", "type": "functional, cell-based"}, "DLD-1 [23]": {"test_system": "DLD-1", "assay": "Inhibition of TNF-alpha induced activation of MAPK signaling pathway in human DLD-1 cells assessed as change in phosphorylated p38 level at 6.25 to 50 uM preincubated for 4 hrs and followed TNF-alpha stimulation and measured after 10 mins by Western blot analysis", "type": "cell-based", "settings": "dose 6.25-50 µM, time 250.0 min"}, "[24]": {"target": "T1, NF-kappa-B inhibitor alpha (Homo sapiens)", "assay": "Inhibition of proteasomal degradation of IkappaBalpha in TNF-alpha induced human HCT-116 cells assessed as increase in IkappaBalpha protein expression at 12.5 to 50 uM preincubated for 4 hrs and followed TNF-alpha stimulation and measured after 10 mins by Western blot analysis", "type": "cell-based", "settings": "dose 12.5-50 µM, time 250.0 min"}, "DLD-1 [25]": {"test_system": "DLD-1", "assay": "Inhibition of TNF-alpha induced NF-kB activation in human DLD-1 cells assessed as decrease in phosphorylated IKK protein expression preincubated for 4 hrs and followed TNF-alpha stimulation and measured after 10 mins by Western blot analysis", "type": "cell-based", "settings": "dose 12.5-50 µM, time 250.0 min"}}, "note": "The source made the active and inactive calls. The calls are words filed in the database; no cut-off is given here.", "data": [{"compound": "COC(=O)C1=C(C(=O)OC)C2OC1CC2C#Cc1ccc(C)cc1", "note": "(stereo unspecified)", "values": [{"measurement": "IC50", "setting": "[1]", "result": 14.3, "unit": "µM"}, {"measurement": "Activity", "setting": "[2]", "result": "Non-Toxic"}, {"measurement": "Activity", "setting": "[3]", "result": 15.38, "unit": "%"}, {"measurement": "Activity", "setting": "[4]", "result": "Non-Toxic"}, {"measurement": "Activity", "setting": "Mus musculus [5]", "result": "Dose-Dependent Effect"}, {"measurement": "Activity", "setting": "Mus musculus [6]", "result": "Active"}, {"measurement": "Activity", "setting": "[7]", "result": 0}, {"measurement": "Activity", "setting": "HCT-116 [8]", "result": "inactive"}, {"measurement": "Activity", "setting": "Mus musculus [9]", "result": "Active"}, {"measurement": "Activity", "setting": "DLD-1 [10]", "result": "Active"}, {"measurement": "inhibition", "setting": "HCT-116 [11]", "result": "inactive"}, {"measurement": "inhibition", "setting": "[12]", "result": "Active"}, {"measurement": "inhibition", "setting": "HCT-116 [13]", "result": "Dose-Dependent Effect"}, {"measurement": "inhibition", "setting": "HCT-116 [14]", "result": "Active"}, {"measurement": "inhibition", "setting": "DLD-1 [15]", "result": "Dose-Dependent Effect"}, {"measurement": "Activity", "setting": "[16]", "result": 13.21, "unit": "%"}, {"measurement": "CC50 at 24 h", "setting": "[17]", "result": 12.2, "unit": "µM"}, {"measurement": "Activity", "setting": "HCT-116 [18]", "result": "Toxic"}, {"measurement": "selectivity ratio", "setting": "[19]", "result": 4.57}, {"measurement": "inhibition", "setting": "DLD-1 [20]", "result": "Dose-Dependent Effect"}, {"measurement": "Activity", "setting": "HCT-116 [21]", "result": "Active"}, {"measurement": "Activity", "setting": "[22]", "result": "Non-Toxic"}, {"measurement": "IC50", "setting": "RAW264.7", "result": 2.66, "unit": "µM"}, {"measurement": "inhibition", "setting": "DLD-1 [23]", "result": "inactive"}, {"measurement": "inhibition", "setting": "[24]", "result": "Active"}, {"measurement": "inhibition", "setting": "DLD-1 [25]", "result": "Dose-Dependent Effect"}]}]}
